Assay results: patent US11046954B2, “Targeted protein degradation to attenuate adoptive T-cell therapy associated adverse inflammatory responses” (Dana-Farber Cancer Institute, Inc., priority 2015, dated 2021)

Key:
FKBP*-KRASG12V = experiment: Immunoblot of NIH3T3 cells expressing FKBP* fused to KRASG12V: degradation; assay type: cell-based; conditions: 1 μM, 24 hours
Experimental: (§1) FIG. 19 is an immunoblot of NIH3T3 cells expressing KRASG12V allele fused to FKBP* in the N-terminus or C-terminus. Cells were treated with 500 nM dFKBP7 for the indicated time. Cells were harvested and immunoblotted to measure degradation of FKBP*-KRASG12V and downstream surrogates of KRAS signaling (e.g. pMEK and pAKT).
(§2) FIG. 20 is an immunoblot of NIH3T3 cells expressing FKBP* fused to the N-terminus of KRASG12V treated with luM of the indicated dFKBP heterobifunctional compounds for 24 hours. Cells were harvested and immunoblotted to measure degradation of FKBP*-KRASG12V and downstream surrogates of KRAS signaling (e.g. pMEK and pAKT).
as §2, with “21” for “20”, “with” for “with luM of”, “concentrations of dFKBP13” for “dFKBP heterobifunctional compounds”
(§3) FIG. 22 is an immunoblot of NIH3T3 cells expressing FKBP* fused to the N-terminus of KRASG12V treated with luM dFKBP13 for the indicated time. Cells were harvested and immunoblotted to measure degradation of FKBP*-KRASG12V and downstream surrogates of KRAS signaling (e.g. pMEK and pAKT).
(§4) Cells were treated with 500 nM dFKBP7 for the indicated time. Cells were harvested and immunoblotted to measure degradation of FKBP*-KRAS and downstream surrogates of KRAS signaling (e.g. pMEK and pAKT).
(§5) Western blotting of NIH3T3 cells expressing dTAG-KRASG12V were treated with 1 μM of the indicated dFKBP heterobifunctional compounds for 24 hours. Cells were harvested and immunoblotted to measure degradation of FKBP*-KRAS and downstream surrogates of KRAS signaling (e.g. pMEK and pAKT).
(§6) Western blotting of NIH3T3 cells expressing FKBP* fused to the N-terminus of KRAS treated with the indicated concentrations of dFKBP13 for 24 hours. Cells were harvested and immunoblotted to measure degradation of FKBP*-KRAS and downstream surrogates of KRAS signaling (e.g. pMEK and pAKT).
(§7) To evaluate the kinetic control of targeted degradation of dTAG-KRAS, dFKBP13 was administered by increased duration. Western blotting of NIH3T3 cells expressing FKBP* fused to the N-terminus of KRAS treated with 1 μM dFKBP13 for the indicated time. Cells were harvested and immunoblotted to measure degradation of FKBP*-KRAS and downstream surrogates of KRAS signaling (e.g. pMEK and pAKT).

[1] = tested on: downstream surrogates of KRAS signaling (e.g. pMEK and pAKT); experiment: Immunoblot of NIH3T3 cells expressing FKBP*-KRASG12V: downstream KRAS signaling; assay type: cell-based; conditions: NIH3T3 FKBP*-KRASG12V; 1 μM, 24 hours
Experimental: as §1, §2
as §3, with “21” for “22”, “the indicated concentrations of” for “luM”, “24 hours.” for “the indicated time.”
as §3, §4, §5, §6, §7

CC[C@H](C(=O)N1CCCC[C@H]1C(=O)O[C@H](CCc1ccc(OC)c(OC)c1)c1cccc(OCC(=O)NCCCCCCCCNC(=O)COc2cccc3c2C(=O)N(C2CCC(=O)NC2=O)C3=O)c1)c1cc(OC)c(OC)c(OC)c1 (some centres unmarked) [dFKBP9]
degradation of FKBP*-KRASG12V (FKBP*-KRASG12V): potent degradation
inhibition of downstream signaling (pMEK, pAKT) [1]: inhibition of downstream signaling
